The results in this text go back to ChEMBL document CHEMBL4017474, “A calcineurin antifungal strategy with analogs of FK506” (Bioorg Med Chem Lett, 2017).

SMILES strings stand for the structures. Converted amounts (≈) assume the structure as drawn. The source made the active and inactive calls. No cut-off for these calls is given here.

Data set [1] in a line: Antagonist activity at Aspergillus fumigatus FKBP12 measured after 30 mins by fluorescein labelled SLF tracer based fluorescence polarization assay.
Data set [2] is described as follows: Clearance in mouse at 3 mg/kg, iv. To be noted: in vivo. Type of data set: ADME, organism-based.
The nature of data set [3]: Volume of distribution at steady state in mouse at 3 mg/kg, iv. To be noted: in vivo, read-out: Vdss. The format is ADME, organism-based.
Data set [4] deals with Aspergillus fumigatus. The data set is described as follows: Antifungal activity against Aspergillus fumigatus by broth macrodilution method. The format is functional.
Another data set deals with Jurkat. The experiment in a line: Immunosuppressive activity in PMA/ionomycin stimulated human Jurkat T cells assessed as suppression of IL2 production pretreated for 15 to 30 mins followed by PMA/ionomycin addition measured after 18 to 20 hrs by ELISA. The format is cell-based.
Data set [5] is described as follows: AUClast in mouse at 3 mg/kg, iv. Type of data set: ADME, organism-based. Set-up: dose 3 mg/kg, time 0 - last, route intravenous. As to conditions: in vivo.
In another data set the test system is Cryptococcus neoformans. The data set is described as follows: Antifungal activity against Cryptococcus neoformans by broth macrodilution method. Type of data set: functional.
The next data set concerns Vero 76. The experiment in a line: Cytotoxicity against African green monkey Vero 76 cells. The format is cell-based. As to conditions: Chlorocebus sabaeus.
A short description of data set [6]: Terminal half-life in mouse at 3 mg/kg, iv. The format is ADME, organism-based. As to conditions: in vivo, read-out: beta t1/2 (converted).
For the next data set, the system named is HepG2. The experiment in a line: Cytotoxicity against human HepG2 cells. Type of data set: cell-based.
Data set [7] has as its target T1, Peptidyl-prolyl cis-trans isomerase FKBP1A (Homo sapiens, UniProt P62942). The experiment in a line: Antagonist activity at recombinant human N-terminal His6-tagged FKBP12 expressed in Escherichia coli assessed as inhibition of FKBP12 binding to calcineurin at […] using […] pretreated for 1 hr followed by substrate addition measured after 1 hr by biomol green dye based spectrophotometric method.

The target in data set [8] is T1, Peptidyl-prolyl cis-trans isomerase FKBP1A. The data set is described as follows: Antagonist activity at human FKBP12 measured after 30 mins by fluorescein labelled SLF tracer based fluorescence polarization assay.
The subject of data set [9] is Aspergillus fumigatus. The experiment in a line: Antifungal activity against Aspergillus fumigatus up to 25 ug/ml measured after 48 hrs by broth dilution method. Type of data set: functional.
Data set [10] relates to PBMC. The experiment in a line: Reversal of FK506-induced inhibition of cell proliferation in concanavalin A stimulated human PBMC at 1 uM measured after 72 hrs by CellTiter-Glo assay relative to control. Set-up: scale not given: the % may be the effect or the level left. Type of data set: functional.
Data set [11] can be described thus: Tmax in mouse at 10 mg/kg, po. Type of data set: ADME, organism-based. As to conditions: in vivo.
A short description of data set [12]: Cmax in mouse at 10 mg/kg, po. The format is ADME, organism-based. Set-up: dose 10 mg/kg, route oral. As to conditions: in vivo.
For data set [13], the system named is PBMC. The experiment in a line: Antiproliferative activity against concanavalin A stimulated human PBMC at 1 to 2 ug/ml measured after 72 hrs by CellTiter-Glo assay. Type of data set: cell-based.
The test system of data set [14] is Aspergillus fumigatus. The data set is described as follows: Antifungal activity against Aspergillus fumigatus assessed as spore germination at 12.5 ug/ml measured after 48 hrs in presence of FK506 by broth dilution method relative to control. Type of data set: functional.
The test system of data set [15] is PBMC. The experiment in a line: Permeability across human PBMC at 1 uM. The format is ADME, cell-based.
The nature of data set [16]: AUClast in mouse at 10 mg/kg, po. Type of data set: ADME, organism-based. Set-up: dose 10 mg/kg, time 0 - last, route oral. To be noted: in vivo.

T1 sequence (P62942 whole entry): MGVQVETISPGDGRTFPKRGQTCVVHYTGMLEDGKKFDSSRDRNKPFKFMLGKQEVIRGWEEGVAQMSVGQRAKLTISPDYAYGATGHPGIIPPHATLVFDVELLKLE

With `C=CC[C@@H]1/C=C(\C)C[C@H](C)C[C@H](OC)[C@H]2O[C@@](O)(C(=O)C(=O)N3CCCC[C@H]3C(=O)O[C@H](/C(C)=C/[C@@H]3CC[C@@H](O)[C@H](OC)C3)[C@H](C)[C@@H](O)CC1=O)[C@H](C)C[C@@H]2OC` [TACROLIMUS ANHYDROUS], the IC50 in data set [1] was 18.4 nM; in the data set with Jurkat it was 360 nM; in the data set with Vero 76, greater than 100000 nM; with HepG2 it was greater than 100000 nM. In addition, the clearance in [2] is 29.5 mL/min/kg. In data set [3], the Vd was 1.8 L/kg. For the same compound, the MIC in the data set on Aspergillus fumigatus [4] amounted to 0.025 µg/mL (≈ 0.0311 µM); in the data set on Cryptococcus neoformans, 0.01 µg/mL (≈ 0.0124 µM). The AUC(0-t) in data set [5] was 1620 ng·h/mL. Also, in data set [6], the half-life was 57.1 min. For the same compound, the inhibition result in data set [7] was “inactive”.
Compound `CO[C@H]1C[C@@H](C)C/C(C)=C/[C@@H](CCCSCCO)C(=O)C[C@H](O)[C@@H](C)[C@@H](/C(C)=C/[C@@H]2CC[C@@H](O)[C@H](OC)C2)OC(=O)[C@@H]2CCCCN2C(=O)C(=O)[C@]2(O)O[C@H]1[C@@H](OC)C[C@H]2C` showed a clearance in data set [2] of 22.8 mL/min/kg. Besides, the IC50 in [8] was 27 nM; in the data set on Jurkat, greater than 10000 nM; in the data set with Vero 76, greater than 100000 nM; in the data set with HepG2 it was greater than 100000 nM. Moreover, the Vd in data set [3] amounted to 1.17 L/kg. Further, the result with Aspergillus fumigatus [9] was inactive. For the same compound, the Activity in the data set with PBMC [10] is listed as 96.5%; in the data set on PBMC [13], “Non-Toxic”; in the data set on Aspergillus fumigatus [14], 37.5%. In addition, the AUC(0-t) amounted to 2110 ng·h/mL in data set [5] and 2710 ng·h/mL in data set [16]. The Tmax in [11] came out at 30 min. Further, the Cmax in data set [12] was 1640 ng/mL. Further, in data set [6], the half-life was 47.6 min. The compound further showed a permeability in the data set with PBMC [15] of 100%. The inhibition result in [7] is “inactive”.
